Legend:
ΔF508-CFTR [1] = biological target: T1, ΔF508-CFTR (Homo sapiens, UniProt P13569, DEL508-508); experiment: CFTR cell surface levels using HRP-tagged ΔF508-CFTR expressing CFBE cells, in the presence of a co-corrector; assay type: cell-based; details: HRP-tagged ΔF508-CFTR CFBE cells, in the presence of 3 μM co-corrector; for EC50: read-out: EC50
T1 construct: host or cells: CFBE41o-, doxycycline-inducible
Method in brief: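 Chemiluminescent read-out of surface HRP (15 min, dark) after PBS washes. Activity is normalized as 100×(sample−DMSO)/(3 μM co-corrector alone−DMSO).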

ΔF508-CFTR [2] = biological target: T1, ΔF508-CFTR; experiment: CFTR cell surface levels using HRP-tagged ΔF508-CFTR expressing CFBE cells, intrinsic corrector capacity; assay type: cell-based; design: % Activation: concentration or dose not given beside the values; details: HRP-tagged ΔF508-CFTR expressing CFBE41o- cells, compound alone (intrinsic corrector capacity), 20 hours at 33° C.; for EC50: read-out: EC50
Method in brief: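 Read-out: chemiluminescent HRP activity of ECL4-HRP-tagged ΔF508-CFTR at the cell surface, 15 min substrate in dark. Normalized as 100×(sample−DMSO)/(positive control−DMSO).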

T1 sequence (P13569 with tags, fused parts or gaps DEL508-508): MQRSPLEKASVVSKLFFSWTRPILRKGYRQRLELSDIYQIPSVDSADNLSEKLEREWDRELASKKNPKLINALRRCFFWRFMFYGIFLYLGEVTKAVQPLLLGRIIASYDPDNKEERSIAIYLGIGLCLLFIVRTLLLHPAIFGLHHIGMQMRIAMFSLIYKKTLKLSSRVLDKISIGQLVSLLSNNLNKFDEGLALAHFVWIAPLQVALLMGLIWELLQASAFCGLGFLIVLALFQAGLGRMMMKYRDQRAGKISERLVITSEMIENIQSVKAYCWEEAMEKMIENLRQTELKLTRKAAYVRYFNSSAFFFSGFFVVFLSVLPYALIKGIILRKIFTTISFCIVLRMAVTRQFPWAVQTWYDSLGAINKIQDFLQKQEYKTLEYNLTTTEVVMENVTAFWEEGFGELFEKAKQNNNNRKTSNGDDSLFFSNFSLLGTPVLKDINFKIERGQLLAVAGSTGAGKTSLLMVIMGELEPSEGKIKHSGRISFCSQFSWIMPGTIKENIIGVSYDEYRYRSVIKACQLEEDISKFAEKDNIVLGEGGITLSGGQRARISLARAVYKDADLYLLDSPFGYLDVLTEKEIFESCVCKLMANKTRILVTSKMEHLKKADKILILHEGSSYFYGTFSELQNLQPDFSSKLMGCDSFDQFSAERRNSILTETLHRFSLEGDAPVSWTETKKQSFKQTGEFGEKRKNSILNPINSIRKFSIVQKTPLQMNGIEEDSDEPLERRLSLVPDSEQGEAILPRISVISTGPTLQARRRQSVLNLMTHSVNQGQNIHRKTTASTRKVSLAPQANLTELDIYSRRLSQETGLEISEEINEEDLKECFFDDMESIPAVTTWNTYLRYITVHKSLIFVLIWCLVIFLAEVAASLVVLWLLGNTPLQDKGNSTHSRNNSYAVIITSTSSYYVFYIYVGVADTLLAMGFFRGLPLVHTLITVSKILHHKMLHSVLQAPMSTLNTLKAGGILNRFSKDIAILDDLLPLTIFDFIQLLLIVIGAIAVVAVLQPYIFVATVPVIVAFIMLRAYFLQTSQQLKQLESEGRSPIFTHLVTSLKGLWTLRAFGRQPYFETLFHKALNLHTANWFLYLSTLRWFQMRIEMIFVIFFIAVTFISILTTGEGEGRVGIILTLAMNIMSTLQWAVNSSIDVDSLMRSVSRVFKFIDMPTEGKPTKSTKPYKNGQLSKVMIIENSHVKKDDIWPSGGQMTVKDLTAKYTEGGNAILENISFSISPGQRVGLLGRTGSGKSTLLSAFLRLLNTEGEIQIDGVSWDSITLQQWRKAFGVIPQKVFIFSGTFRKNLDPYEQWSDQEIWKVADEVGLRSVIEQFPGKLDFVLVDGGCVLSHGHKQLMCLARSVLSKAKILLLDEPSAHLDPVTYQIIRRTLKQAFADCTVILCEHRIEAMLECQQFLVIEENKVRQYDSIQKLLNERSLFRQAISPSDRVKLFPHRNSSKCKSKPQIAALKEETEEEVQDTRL

Structure (SMILES)	% Activation (ΔF508-CFTR [1]) [%]	EC50 (ΔF508-CFTR [1]) [nM]	% Activation (ΔF508-CFTR [2]) [%]	EC50 (ΔF508-CFTR [2]) [nM]
CCS(=O)(=O)NC(=O)c1cc(-c2ccc(N(C)C3CCOCC3)nc2)c2c(C(C)C)nn(C3CCCCC3)c2n1 [Compound 90, 1-cyclohexyl-N-(ethanesulfonyl)-4-{6-[methyl(oxan-4-yl)amino]pyridin-3-yl}-3-(propan-2-yl)-1H-pyrazolo[3,4-b]pyridine-6-carboxamide]	384.95	389	163.75	486
CCS(=O)(=O)NC(=O)c1cc(-c2ccc(N(C)C)nc2)c2c(C3CC3)nn(C3CCCCC3)c2n1 [Compound 92, 1-cyclohexyl-3-cyclopropyl-4-[6-(dimethylamino)pyridin-3-yl]-N-(ethanesulfonyl)-1H-pyrazolo[3,4-b]pyridine-6-carboxamide]	367.67	278	175.77	553
CC(C)c1nn(C2CCCCC2)c2nc(C(=O)NS(C)(=O)=O)cc(-c3ccc(N4CCOC(C)(C)C4)nc3)c12 [Compound 94, 1-cyclohexyl-4-[6-(2,2-dimethylmorpholin-4-yl)pyridin-3-yl]-N-(methanesulfonyl)-3-(propan-2-yl)-1H-pyrazolo[3,4-b]pyridine-6-carboxamide]	421.53	342	193.5	614
CC(C)c1nn(-c2cccc(N3CCOCC3)c2)c2nc(C(=O)NS(C)(=O)=O)cc(-c3ccc(N(C)C4CCOCC4)cc3)c12 [Compound 97, N-(methanesulfonyl)-4-{4-[methyl(oxan-4-yl)amino]phenyl}-1-[3-(morpholin-4-yl)phenyl]-3-(propan-2-yl)-1H-pyrazolo[3,4-b]pyridine-6-carboxamide]	692.82	277	444.85	399
CC(C)c1nn(C2CCCCC2)c2nc(C(=O)NS(C)(=O)=O)cc(-c3ccc(N4CCC(C)(C#N)CC4)nc3)c12 [Compound 98, 4-[6-(4-cyano-4-methylpiperidin-1-yl)pyridin-3-yl]-1-cyclohexyl-N-(methanesulfonyl)-3-(propan-2-yl)-1H-pyrazolo[3,4-b]pyridine-6-carboxamide]	360.15	393	154	556
CC(C)c1nn(-c2cccc(N3CCOCC3)c2)c2nc(C(=O)NS(C)(=O)=O)cc(-c3cnc(N4CCC(C#N)CC4)nc3)c12 [Compound 99, 4-[2-(4-cyanopiperidin-1-yl)pyrimidin-5-yl]-N-(methanesulfonyl)-1-[3-(morpholin-4-yl)phenyl]-3-(propan-2-yl)-1H-pyrazolo[3,4-b]pyridine-6-carboxamide]	601.15	337	414.8	410
Cc1nn(-c2ccccc2)c2nc(C(=O)NS(C)(=O)=O)cc(-c3ccc(N4CCC(N(C)C)C4)cc3)c12 (stereo not drawn) [Compound 100, 4-{4-[3-(dimethylamino)pyrrolidin-1-yl]phenyl}-N-(methanesulfonyl)-3-methyl-1-phenyl-1H-pyrazolo[3,4-b]pyridine-6-carboxamide]	340.6	3220	113	2480
Cc1cccc(-n2nc(C(C)C)c3c(N4CCCCC4)cc(C(=O)NS(C)(=O)=O)nc32)c1 [Compound 101, N-(methanesulfonyl)-1-(3-methylphenyl)-4-(piperidin-1-yl)-3-(propan-2-yl)-1H-pyrazolo[3,4-b]pyridine-6-carboxamide]	455.4	409	254.85	839
CCS(=O)(=O)NC(=O)c1cc(N2CCCCC2)c2c(C(C)C)nn(-c3cccc(C)c3)c2n1 [Compound 102, N-(ethanesulfonyl)-1-(3-methylphenyl)-4-(piperidin-1-yl)-3-(propan-2-yl)-1H-pyrazolo[3,4-b]pyridine-6-carboxamide]	458.75	537	233.9	897
CS(=O)(=O)NC(=O)c1cc(-c2ccc(N3CCC(C#N)CC3)cc2)c2c(C3CCC3)nn(C3CCCCC3)c2n1 [Compound 103, 4-[4-(4-cyanopiperidin-1-yl)phenyl]-3-cyclobutyl-1-cyclohexyl-N-(methanesulfonyl)-1H-pyrazolo[3,4-b]pyridine-6-carboxamide]	501.03	409	263.8	536
CC(C)c1nn(-c2cccc(N3CC(O)C3)c2)c2nc(C(=O)NS(C)(=O)=O)cc(-c3ccc(N4CCOCC4)cc3)c12 [Compound 105, 1-[3-(3-hydroxyazetidin-1-yl)phenyl]-N-(methanesulfonyl)-4-[4-(morpholin-4-yl)phenyl]-3-(propan-2-yl)-1H-pyrazolo[3,4-b]pyridine-6-carboxamide]	457.85	699	258.1	908
COC1CCN(c2ccc(-c3cc(C(=O)NS(C)(=O)=O)nc4c3c(C(C)C)nn4C3CCCCC3)cn2)C1 (stereo not drawn) [Compound 106, 1-cyclohexyl-N-(methanesulfonyl)-4-[6-(3-methoxypyrrolidin-1-yl)pyridin-3-yl]-3-(propan-2-yl)-1H-pyrazolo[3,4-b]pyridine-6-carboxamide]	348.1	394	162.75	526
COC(=O)N1CC(c2nn(-c3cc(F)cc(F)c3)c3nc(C(=O)NS(C)(=O)=O)cc(-c4ccc(NC(C)=O)cc4)c23)C1 [Compound 107, methyl 3-{4-(4-acetamidophenyl)-1-(3,5-difluorophenyl)-6-[(methanesulfonyl)carbamoyl]-1H-pyrazolo[3,4-b]pyridin-3-yl}azetidine-1-carboxylate]	219.4	3340	64.54	3340
CC(C)c1nn(C2CCCCC2)c2nc(C(=O)NS(C)(=O)=O)cc(-c3ccc(N4CCCC(F)C4)nc3)c12 (stereo not drawn) [Compound 108, 1-cyclohexyl-4-[6-(3-fluoropiperidin-1-yl)pyridin-3-yl]-N-(methanesulfonyl)-3-(propan-2-yl)-1H-pyrazolo[3,4-b]pyridine-6-carboxamide]	428.3	509	218.05	561
COCCN(C)c1ccc(-c2cc(C(=O)NS(C)(=O)=O)nc3c2c(C(C)C)nn3-c2cccc(N3CCCC3)c2)cc1 [Compound 109, N-(methanesulfonyl)-4-{4-[(2-methoxyethyl)(methyl)amino]phenyl}-3-(propan-2-yl)-1-[3-(pyrrolidin-1-yl)phenyl]-1H-pyrazolo[3,4-b]pyridine-6-carboxamide]	571.3	634	381.05	613
CN(c1ccc(-c2cc(C(=O)NS(C)(=O)=O)nc3c2c(C2CCC2)nn3-c2cccc(N3CCCC3)c2)cc1)C1CCOCC1 [Compound 111, 3-cyclobutyl-N-(methanesulfonyl)-4-{4-[methyl(oxan-4-yl)amino]phenyl}-1-[3-(pyrrolidin-1-yl)phenyl]-1H-pyrazolo[3,4-b]pyridine-6-carboxamide]	596.8	378	411.63	444
CCS(=O)(=O)NC(=O)c1cc(-c2cnc(N3CCOCC3)nc2)c2c(C(C)C)nn(-c3ccccc3)c2n1 [Compound 112, N-(ethanesulfonyl)-4-[2-(morpholin-4-yl)pyrimidin-5-yl]-1-phenyl-3-(propan-2-yl)-1H-pyrazolo[3,4-b]pyridine-6-carboxamide]	472.8	884	254.85	699
CCS(=O)(=O)NC(=O)c1cc(-c2ccc(OC)cc2)c2c(C)nn(-c3ccc(C)c(Cl)c3)c2n1 [Compound 114, 1-(3-chloro-4-methylphenyl)-N-(ethanesulfonyl)-4-(4-methoxyphenyl)-3-methyl-1H-pyrazolo[3,4-b]pyridine-6-carboxamide]	277.45	952	130.85	1140
CCS(=O)(=O)NC(=O)c1cc(-c2ccc(N3CCOCC3)cc2)c2c(C)nn(-c3cc(C)cc(C)c3)c2n1 [Compound 115, 1-(3,5-dimethylphenyl)-N-(ethanesulfonyl)-3-methyl-4-[4-(morpholin-4-yl)phenyl]-1H-pyrazolo[3,4-b]pyridine-6-carboxamide]	389.6	665	216.05	1050
CCS(=O)(=O)NC(=O)c1cc(-c2ccc(N3CCOCC3)cc2)c2c(C)nn(-c3ccc(F)c(F)c3)c2n1 [Compound 116, 1-(3,4-difluorophenyl)-N-(ethanesulfonyl)-3-methyl-4-[4-(morpholin-4-yl)phenyl]-1H-pyrazolo[3,4-b]pyridine-6-carboxamide]	438.37	630	295.57	957
CCS(=O)(=O)NC(=O)c1cc(N2CCC(OC)CC2)c2c(C(C)C)nn(-c3cccc(C)c3)c2n1 [Compound 118, N-(ethanesulfonyl)-4-(4-methoxypiperidin-1-yl)-1-(3-methylphenyl)-3-(propan-2-yl)-1H-pyrazolo[3,4-b]pyridine-6-carboxamide]	469	280	289.93	398

Source: patent US10259810B2, “N-sulfonylated pyrazolo[3,4-b]pyridin-6-carboxamides and method of use” (AbbVie S.à.r.l., priority 2015, dated 2019)
